According to US4704361A, “Pharmaceutical compositions containing the cytidine monophospate of 5-acetamido-3,5-dideoxy-D-glycero-D-galactononulosaminic acid and a method for preparing said compound” (Compagnia di Ricerca Chimica S.p.A., priority 1983, dated 1987):
Like-named read-outs stand apart in the source and are kept apart here. One block for each compound: values may come before it.

Assays:
Cerebral gangliosides = Cerebral gangliosides content (NANA) in rats on the 21st day of life; format: in vivo, rat
Text: The study has been performed with 16 couples of the rats Charles River in their reproductive age, selected by uniform weight. On the third day of gestation they have been arbitrarily divided into 4 groups. The two first groups have been fed with a semisynthetic diet that contained 10% of casein. Dietetic treatment have been continued during the entire periods of gestation and nursing.
(§1) Between the 14th and the 21st day of the life, the puppies of the 2nd and the 4th group have been treated with 20 mg/kg of CMP-NANA (Sigma Chemical Co.) i.p., the 1st and the 3rd group have been treated with the equal volume of physiological solution.
(§2) On the 21st day two male puppies from each group have been fixed on the holed table and for 20 minutes placed under the open field experiment. The periods related to the explorative activity have been observed and quantified. At the end of the experiment, the animals have been sacrified by decapitation, and their brains have been removed and examined for the content of the gangliosides (extractions performed by the method of G. Tettamanti et al., Biochim. Biophys. Acta 296, 160-170 (1973) as well as of the glycoproteins (extractions by the method of B. Berra et al., in Membranes in Tumor Growth, Galeotti et al., Eds., Elsevier, pp. 81-87, 1982; F. Omodeo Sale et al., Cell Mol. Biol. 27, 455-458, 1981).
(§3) In both cases the content of NANA has been determined.

Striatal gangliosides = test: Levels of striatal gangliosides of the rat following injuries by kainic acid; format: in vivo; settings: for Striatal gangliosides (NANA content): relative to control = 100%
Method: Male rats, Charles River CD, body weight of 180-200 g, have been divided into 4 groups, each group having 20 animals. The first group has been classified as the control group, the second group has been treated with physiological solution, the third group has been treated with kainic acid and the fourth group has been treated with CMP-NANA (20 mg/kg/day, i.p.) and kainic acid.
The treatment with CMP-NANA has been started one week before the treatment with kainic acid and has been continued until the animals have been sacrified.
The animals have been anesthetized with pentobarbital (60 mg/kg i.p.) and then treated with kainic acid (2 μg in 1 μl of the physiological solution), that has been injected into striatum.
The control rats have been treated with an equal volume (1 μl) of the physiological solution.
After 7 days the rats have been sacrified and the striatum has been removed. Each single determination has been performed with the pool of 5 samples. The gangliosides have been extracted and determined (as NANA content) as described previously.

Acid hydrolysis at pH 1 = format: physicochemical; settings: pH 1, 10 min, room temperature
Method: [α]D =-11.8° (c=0.2, water).

Storage stability = format: physicochemical; settings: powder, -10° C.
Method: A 20 ml aliquot (containing about 8000 units of the enzyme) of the enzyme, CTP (4-5 mmol), N-acetylneuraminic acid (1 mmol) were added in portions, during 2 hours, to the solution (200 ml) of Tris-buffer, Mg^+2, and β-thio-propionic acid. The last three components were present in the concentrations 0.4, 0.04, and 0.002M, respectively. The mixture was incubated at 36°±0.2° C. for 6 hours, then diluted 8 times with water and rised slowly through a column of Dowex 1×4, bicarbonate form, 50-100 mesh (0.6 l resin/mmol of I). First washing was performed with 1 mM ammonium hydroxide, then with 3-4 vol. of a linear gradient from 0.02-2.0M triethylammonium hydrogencarbonate, pH 7.8.

LD50 in albino rats = settings: rat, in vivo, albino rats of 20±1 g
Cerebral glycoproteins = Cerebral glycoproteins content (NANA) in rats on the 21st day of life; format: in vivo, rat
Method: (§4) The study has been performed with 16 couples of the rats Charles River in their reproductive age, selected by uniform weight. On the third day of gestation they have been arbitrarily divided into 4 groups. […] Dietetic treatment have been continued during the entire periods of gestation and nursing.
as §1, §2, §3

rats = test: Open field experiment, explorative activity of rat puppies on the 21st day of life; format: in vivo
Method: as §4, §1, §2

Neuro-2a cells = test: CMP-NANA-induced neurite formation (sprouting) in cultured cells; format: cell-based
Method: Neuro-2a cells (American Type Culture Collection, Rockville, USA) were seeded at standard conditions (10^4 -10^6 cells/100 mm dish). Incubation time for quantification of sprouting was 24 hours. Thereafter fixation of the cells was performed by means of 3% glutaraldehyde containing buffered saline. Quantitative determination of nerve cell growth was performed with Zeiss D-7082 Micreo-Videomat.
Neurite sprouting was used as the parameter for nerve cell differentiation. The samples fixed in formaline were stained for better contrast.

[1] = test system: Neuro-2a neurine neuroblastoma; test: In vitro neuronal maturation, index of maturation of neuroblastoma cells; format: cell-based; settings: for Index of maturation (I.M.): standard media 10 ± 2, I.M. = L.P. × N.P.
Method: Neuro-2a neurine neuroblastoma (American Type Culture Collection-CCL 131) was grown in the medium consisting of fecal calf serum (Irvine Scientific, Irvine, Ca.), to which non-essential amino acids, antibiotic (5-20 mg %), and bicarbonate (50-100 mg %), were added. The cells were grown routinely on corning plastic tissue-culture flasks.
Cells for assay were plated on corning plastic Petri dishes, in the medium with or without CMP-NANA. In order to examine the role of CMP-NANA on in vitro neuron maturation, it was incorporated into the culture media at the time of plating or 24 or 48 hours postplating. The mean number and length of cell processes were repeatedly determined for a minimum of 100 cells per treatment group, to provide a semiquantitative index of neuron maturation (Table 5).
Index of maturation (I.M.) in Table 5 is expressed as: I.M.=L.P.×N.P., where:
L.P. 10:=the length of process to nearest 10μ
N.P.=Total number of processes
The effects of the various concentrations of CMP-NANA were evaluated with high resolution Nomarski optics.

[2] = Adsorption and distribution of labeled CMP-NANA in the rat; format: in vivo; settings: 20 mg/kg i.m.; for Radioactivity level: Blood; for tissue uptake at 0.5 h / tissue uptake at 1 h / tissue uptake at 2 h / tissue uptake at 4 h: im, read-out: Radioactivity level
Method: CMP-NANA [9-^3 H] has been purchased from NEN (New England Nuclear, 6072 Dreieich, West Germany).
The rats fasting for about 18 hours, have been treated with CMP-NANA, dissolved in the phosphate buffer, at the dose of 20 mg/kg i.m. (specific activity=1000 mCi/mg). After 30 min., 1 hour, 2 hours and 4 hours periods the animals have been sacrified in the groups of 4, then liver, kidney and brain have been taken away from the animals and accurately weighted.
100 μg samples of the previous organs, and an analogous sample of the blood have been dissolved in Soluene 350 (Packard) and have been counted on the scintillation instrument in the liquid phase, on addition of the scintillating liquid.
The measurements have been quantized using a canal to canal-ratio technique. Table 3 illustrates the averaged results of all measurements.

[3] = normal and hypoproteinic diet, 20 mg/kg i.p.

Structure (SMILES): CC(=O)N[C@H]1[C@H]([C@H](O)[C@H](O)CO)O[C@](OP(=O)(O)OC[C@H]2O[C@@H](n3ccc(N)nc3=O)[C@H](O)[C@@H]2O)(C(=O)O)C[C@@H]1O [CMP-NANA, cytidine monophosphate of 5-acetamido-3,5-dideoxy-D-glycero-D-galactononulosaminic acid]
Cerebral gangliosides (Cerebral gangliosides; Group 2: 20% casein + CMP-NANA 20 mg/kg i.p., relative to 2nd group = 100% (reference), p < 0.01-0.001 vs nontreatment (Group 1: 75)): 100%
Cerebral gangliosides (Cerebral gangliosides; Group 4: 10% casein + CMP-NANA 20 mg/kg i.p., relative to 2nd group = 100%, p < 0.01-0.001 vs nontreatment (Group 3: 41)): 68%
NANA content in the cerebral gangliosides (in words) (Cerebral gangliosides; [3]): inhanced in statistically significant manner
level of gangliosides in the striatum (in words) (Striatal gangliosides; CMP-NANA 20 mg/kg/day i.p. with kainic acid): hindered the diminuation of the level of gangliosides in the striatum
Striatal gangliosides (NANA content) (Striatal gangliosides; Group 4: kainic acid (2 μg into striatum) and CMP-NANA 20 mg/kg/day i.p.): 88%
hydrolysis in acid (Acid hydrolysis at pH 1): affording CMP and N-acetylneuraminic acid (1.0:1.0 mol)
storage stability (Storage stability): at least one year
LD50 (LD50 in albino rats; ip, intraperitoneal): 900 mg/kg
LD50 (LD50 in albino rats; po, per os): 2400 mg/kg
Cerebral glycoproteins (Cerebral glycoproteins; Group 2: 20% casein + CMP-NANA 20 mg/kg i.p., relative to 2nd group = 100% (reference), p < 0.01-0.001 vs nontreatment (Group 1: 79)): 100%
Cerebral glycoproteins (Cerebral glycoproteins; Group 4: 10% casein + CMP-NANA 20 mg/kg i.p., relative to 2nd group = 100%, p < 0.01-0.001 vs nontreatment (Group 3: 69)): 75%
NANA content in the cerebral glycoproteins (in words) (Cerebral glycoproteins; [3]): inhanced in statistically significant manner
Explorative activity (rats; Group 2: 20% casein + CMP-NANA 20 mg/kg i.p., relative to 2nd group = 100% (reference), p < 0.01-0.001 vs nontreatment (Group 1: 47)): 100%
Explorative activity (rats; Group 4: 10% casein + CMP-NANA 20 mg/kg i.p., relative to 2nd group = 100%, p < 0.01-0.001 vs nontreatment (Group 3: 12)): 52%
explorative activity (in words) (rats; [3]): inhanced in statistically significant manner
sprouting of the nerves (in words) (Neuro-2a cells; 50 μg/ml): nearly doubled
dose-response relationship for number of neurites (in words) (Neuro-2a cells; 5-50 μg/ml, 24 hours): close dose-response relationship
increase of sprouting above the original steady-state value (Neuro-2a cells; 30 μ/ml (so in the source)): ~50%
activity at 5 µg/mL (Neuro-2a cells; Mus musculus, N2a, 5 μg/ml, 24 hours, 0 μg/ml = 100 ± 15, read-out: Extent of sprouting): 110 ± 15%
activity at 10 µg/mL (Neuro-2a cells; Mus musculus, N2a, 10 μg/ml, 24 hours, 0 μg/ml = 100 ± 15, read-out: Extent of sprouting): 117 ± 20%
activity at 20 µg/mL (Neuro-2a cells; Mus musculus, N2a, 20 μg/ml, 24 hours, 0 μg/ml = 100 ± 15, read-out: Extent of sprouting): 132 ± 25%
activity at 30 µg/mL (Neuro-2a cells; Mus musculus, N2a, 30 μg/ml, 24 hours, 0 μg/ml = 100 ± 15, read-out: Extent of sprouting): 145 ± 30%
activity at 50 µg/mL (Neuro-2a cells; Mus musculus, N2a, 50 μg/ml, 24 hours, 0 μg/ml = 100 ± 15, read-out: Extent of sprouting): 178 ± 35%
change of I.M. versus standard media (in words) ([1]; 2 μg/ml): doubled
change of I.M. versus standard media (in words) ([1]; 20 μg/ml): ten time higher
Index of maturation (I.M.) ([1]; SM + 1 μg/ml): 20 ± 5
Index of maturation (I.M.) ([1]; SM + 5 μg/ml): 45 ± 5
Index of maturation (I.M.) ([1]; SM + 10 μg/ml): 68 ± 10
Index of maturation (I.M.) ([1]; SM + 20 μg/ml): 92 ± 10

Radioactivity level ([2]; 30 min): 12.2 % of the administrated dose pe
Radioactivity level ([2]; 1 hr): 5.7 % of the administrated dose pe
Radioactivity level ([2]; 2 hrs): 3.2 % of the administrated dose pe
Radioactivity level ([2]; 4 hrs): 1.9 % of the administrated dose pe
tissue uptake at 0.5 h ([2]; Brain, 30 min): 6.2 %ID/g
tissue uptake at 1 h ([2]; Brain, 1 hr): 7.8 %ID/g
tissue uptake at 2 h ([2]; Brain, 2 hrs): 4.9 %ID/g
tissue uptake at 4 h ([2]; Brain, 4 hrs): 2.4 %ID/g
tissue uptake at 0.5 h ([2]; Kidney, 30 min): 2.6 %ID/g
tissue uptake at 1 h ([2]; Kidney, 1 hr): 5.2 %ID/g
tissue uptake at 2 h ([2]; Kidney, 2 hrs): 3.3 %ID/g
tissue uptake at 4 h ([2]; Kidney, 4 hrs): 1.6 %ID/g
tissue uptake at 0.5 h ([2]; Liver, 30 min): 3.9 %ID/g
tissue uptake at 1 h ([2]; Liver, 1 hr): 4.7 %ID/g
tissue uptake at 2 h ([2]; Liver, 2 hrs): 2.8 %ID/g
tissue uptake at 4 h ([2]; Liver, 4 hrs): 0.9 %ID/g
Structure (SMILES): [3H]C(O)[C@@H](O)[C@@H](O)[C@@H]1O[C@](OP(=O)(O)OC[C@H]2O[C@@H](n3ccc(N)nc3=O)[C@H](O)[C@@H]2O)(C(=O)O)C[C@H](O)[C@H]1NC(C)=O (stereo partly drawn) [[^-3 H]-labeled CMP--NANA]
radioactivity decline in blood and organs (in words) [2]: rapidly diminished in the blood, and more slowly in the organs
radioactivity level of the brain relative to liver and kidney (in words) [2]: inferior to those of the liver and kidney

Structure (SMILES): C=C(C)[C@H]1CN[C@H](C(=O)O)[C@H]1CC(=O)O [kainic acid, reference compound]
Striatal gangliosides (NANA content) (Striatal gangliosides; Group 3: kainic acid alone, 2 μg into striatum): 66%
